In assay [1] the target is Cathepsin D (Homo sapiens, UniProt P07339). The experiment in a line: Inhibition of human cathepsin D by FRET assay.
The target in assay [2] is Plasmepsin II (Plasmodium falciparum, UniProt P46925). The experiment in a line: Inhibition of Plasmodium falciparum plasmepsin-2 by FRET assay.

The structures appear in SMILES notation. pIC50: −log10 of the molar value.

Chain of Plasmepsin II (P46925 whole entry): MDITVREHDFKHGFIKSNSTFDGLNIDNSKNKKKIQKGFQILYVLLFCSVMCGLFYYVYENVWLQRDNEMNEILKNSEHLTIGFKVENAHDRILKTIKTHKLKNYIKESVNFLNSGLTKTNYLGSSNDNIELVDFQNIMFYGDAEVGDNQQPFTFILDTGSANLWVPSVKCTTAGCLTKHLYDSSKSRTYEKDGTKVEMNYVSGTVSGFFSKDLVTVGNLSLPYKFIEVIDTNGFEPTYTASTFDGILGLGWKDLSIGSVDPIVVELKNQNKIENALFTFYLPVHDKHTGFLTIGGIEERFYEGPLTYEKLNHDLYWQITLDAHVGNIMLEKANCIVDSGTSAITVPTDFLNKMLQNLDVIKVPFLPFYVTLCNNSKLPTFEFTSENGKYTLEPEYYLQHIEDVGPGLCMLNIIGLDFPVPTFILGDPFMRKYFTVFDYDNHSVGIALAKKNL
Chain of Cathepsin D (P07339 65-162 limits assumed): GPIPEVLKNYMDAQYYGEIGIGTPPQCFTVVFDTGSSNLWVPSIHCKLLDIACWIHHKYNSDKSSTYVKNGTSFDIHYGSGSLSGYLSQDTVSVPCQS
Chain of Cathepsin D (P07339 169-412 limits assumed): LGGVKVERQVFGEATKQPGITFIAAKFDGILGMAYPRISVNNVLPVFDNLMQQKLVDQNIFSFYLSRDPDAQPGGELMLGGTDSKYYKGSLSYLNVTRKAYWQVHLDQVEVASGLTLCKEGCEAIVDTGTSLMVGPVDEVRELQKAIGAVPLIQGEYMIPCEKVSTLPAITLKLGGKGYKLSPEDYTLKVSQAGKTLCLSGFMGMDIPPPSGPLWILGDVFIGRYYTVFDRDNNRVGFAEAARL

A word on the pIC50: it is the negative decadic logarithm of the IC50, by convention in mol/L. Regarding `Cc1cccc(C(=O)NNc2c3ccccc3nc3c(C)c(C)ccc23)c1`, the pIC50 in assay [1] was 8.05; in assay [2], 8.40. As for `CC(C)CC(=O)N[C@H](C(=O)N[C@H](C(=O)N[C@@H](CC(C)C)[C@@H](O)CC(=O)N[C@@H](C)C(=O)N[C@@H](CC(C)C)[C@@H](O)CC(=O)O)C(C)C)C(C)C` [PEPSTATIN], in assay [2], the pIC50 is 9.17. In the case of `Cc1ccc2c(NNC(=O)c3ccccc3O)c3ccccc3nc2c1C`, the figures for the pIC50 in assay [1] and in assay [2] were 9.30 and 9.89, respectively.

The values above are taken from ChEMBL document CHEMBL1145617, “Identification of acridinyl hydrazides as potent aspartic protease inhibitors” (Bioorg Med Chem Lett, 2008).
